Results: patent US12521440B2, “Degradation of bruton's tyrosine kinase (BTK) by conjugation of BTK inhibitors with E3 ligase ligand and methods of use” (BeOne Medicines I GmbH, priority 2021, dated 2026)

Experiments:
[1] = tested on: HEK-293 cells; assay: HEK-293 cytotoxicity detection (CellTiter-Glo); format: cell-based; conditions: Homo sapiens, 72 h incubation, read-out: HEK293
Description: (§1) The IC50 (DC50) value of a compound can be obtained by fitting the following equation Y=Bottom+(TOP−Bottom)/(1+((IC50/X)^hillslope)) wherein, X and Y are known values, and IC50, Hillslope, Top and Bottom are the parameters obtained by fitting with software. Y is the inhibition percentage (calculated from the equation), X is the concentration of the compound; IC50 is the concentration of the compound when the 50% inhibition is reached. The smaller the IC50 value is, the stronger the inhibitory ability of the compound is. Vice versa, the higher the IC50 value is, the weaker the ability the inhibitory ability of the compound is; Hillslope represents the slope of the fitted curve, generally around 1*; Bottom represents the minimum value of the curve obtained by data fitting, which is generally 0%±20%; Top represents the maximum value of the curve obtained by data fitting, which is generally 100%±20%. The experimental data were fitted by calculating and analyzing with Dotmatics data analysis software. HEK-293 Cell Treatment
HEK-293 cells were treated with compounds diluted in 0.2% DMSO, dilution was done according to the following protocol: (1) making 500×stock solution in DMSO from 5 mM by 4-fold dilution, total 8 doses were included; (2) making 2×solution in cell culture medium by transferring 0.5 ul 500×stock solution into 125 ul medium; (3) adding 50 ul of 2×solution to cells for incubation of 72 h.
25 μl of the CellTiter-Glo® Reagent [(Promega)—Cat No. G7572] was added to each well in the 96-well plate. The contents were mixed for 2 minutes on an orbital shaker to induce cell lysis. The plate was then allowed to incubate at room temperature for 10 minutes to stabilize luminescent signal. Luminescence was recorded on BMG PheraStar with luminescence protocol.
as §1, with “IC50” for “IC50 (DC50)”, “Wherein,” for “wherein,”, “software.” for “software. HEK-293 Cell Treatment”

[2] = molecular target: T1, BTK (Homo sapiens, UniProt Q06187); assay: BTK degradation in TMD-8 cells (HTRF assay); format: cell-based; conditions: 6 h treatment, HTRF BTK degradation IC50 (DC50)
T1 construct: endogenous in cells; host or cells: TMD-8 cells
T1 sequence (Q06187 whole entry): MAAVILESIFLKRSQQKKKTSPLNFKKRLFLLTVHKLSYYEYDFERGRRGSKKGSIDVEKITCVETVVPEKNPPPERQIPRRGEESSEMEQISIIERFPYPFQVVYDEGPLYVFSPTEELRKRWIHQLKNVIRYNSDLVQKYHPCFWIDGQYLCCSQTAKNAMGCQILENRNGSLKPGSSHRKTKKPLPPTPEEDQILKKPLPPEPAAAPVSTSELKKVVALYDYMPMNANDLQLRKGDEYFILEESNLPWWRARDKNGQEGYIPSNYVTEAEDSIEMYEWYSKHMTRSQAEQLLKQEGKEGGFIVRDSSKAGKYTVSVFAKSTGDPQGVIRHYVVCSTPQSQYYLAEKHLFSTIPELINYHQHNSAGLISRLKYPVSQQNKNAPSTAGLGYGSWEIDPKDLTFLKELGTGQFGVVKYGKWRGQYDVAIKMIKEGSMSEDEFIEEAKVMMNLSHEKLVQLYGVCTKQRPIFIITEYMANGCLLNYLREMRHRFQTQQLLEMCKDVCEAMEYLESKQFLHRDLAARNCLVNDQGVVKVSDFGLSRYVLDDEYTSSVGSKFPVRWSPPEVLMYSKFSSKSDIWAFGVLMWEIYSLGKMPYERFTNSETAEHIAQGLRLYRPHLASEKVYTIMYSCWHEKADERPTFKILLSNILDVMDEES
Protocol: TMD-8 cells were treated with compounds diluted in 0.2% DMSO, dilution was done according to the following protocol: (1) making 500×stock solution in DMSO from 1 mM by 6-fold dilution, total 8 doses were included; (2) making 2×solution in cell culture medium by transferring 0.5 μl 500×stock solution into 125 μl medium; (3) adding 15 μl of 2×solution to cells for incubation of 6 h.
After 6 h treatment, 10 μl 4×lysis buffer was added to each well; the plate was sealed and incubated for 30 min at room temperature on a plate shaker; Once the cells was lysed, 16 μL of cell lysate were transferred to a PE 384-well HTRF detection plate; 4 μL of pre-mixed HTRF antibodies were added to each well; the plate was covered with a plate sealer, and then spinned at 1000 rpm for 1 min, then incubated overnight at room temperature; the results were read on BMG PheraStar with HTRF protocol (337 nm-665 nm-620 nm).
as §1

| SMILES | DC50 [2] [nM] | IC50 [1] [nM] |
| --- | --- | --- |
| Cc1cc(-c2cc(Nc3ccc(N4CCN(CC5CCN(c6ccc(N7CCC(=O)NC7=O)cc6)CC5)CC4)cc3)ncn2)c(F)cc1[C@@H](C)NC(=O)c1nc(C(C)(C)C)no1 [Example 1, (R)-3-(tert-butyl)-N-(1-(4-(6-((4-(4-((1-(4-(2,4-dioxotetrahydropyrimidin-1(2H)-yl)phenyl)piperidin-4-yl)methyl)piperazin-1-yl)phenyl)amino)pyrimidin-4-yl)-5-fluoro-2-methylphenyl)ethyl)-1,2,4-oxadiazole-5-carboxamide] | 21.3 | > 10000 |
| Cc1cc(-c2cc(Nc3ccc(N4CCN(CC5CCN(c6ccc(N7CCC(=O)NC7=O)c(F)c6)CC5)CC4)cc3)ncn2)c(F)cc1[C@@H](C)NC(=O)c1nc(C(C)(C)C)no1 [Example 2, (R)-3-(tert-butyl)-N-(1-(4-(6-((4-(4-((1-(4-(2,4-dioxotetrahydropyrimidin-1(2H)-yl)-3-fluorophenyl)piperidin-4-yl)methyl)piperazin-1-yl)phenyl)amino)pyrimidin-4-yl)-5-fluoro-2-methylphenyl)ethyl)-1,2,4-oxadiazole-5-carboxamide] | 236 | > 10000 |
| Cc1cc(-c2cc(Nc3ccc(N4CCN(CC5CCN(c6ccc(N7CCC(=O)NC7=O)cc6F)CC5)CC4)cc3)ncn2)c(F)cc1[C@@H](C)NC(=O)c1nc(C(C)(C)C)no1 [Example 3, (R)-3-(tert-butyl)-N-(1-(4-(6-((4-(4-((1-(4-(2,4-dioxotetrahydropyrimidin-1(2H)-yl)-2-fluorophenyl)piperidin-4-yl)methyl)piperazin-1-yl)phenyl)amino)pyrimidin-4-yl)-5-fluoro-2-methylphenyl)ethyl)-1,2,4-oxadiazole-5-carboxamide] | 104 | > 10000 |
| Cc1cc(-c2cc(Nc3cccc(N4CCN(CC5CCN(c6ccc(N7CCC(=O)NC7=O)cc6)CC5)CC4)c3)ncn2)c(F)cc1[C@@H](C)NC(=O)c1nc(C(C)(C)C)no1 [Example 5, (R)-3-(tert-butyl)-N-(1-(4-(6-((3-(4-((1-(4-(2,4-dioxotetrahydropyrimidin-1(2H)-yl)phenyl)piperidin-4-yl)methyl)piperazin-1-yl)phenyl)amino)pyrimidin-4-yl)-5-fluoro-2-methylphenyl)ethyl)-1,2,4-oxadiazole-5-carboxamide] | – | > 10000 |
| Cc1cc(-c2cc(Nc3cccc(N4CCN(C5CC(c6ccc(NC7CCC(=O)NC7=O)cc6)C5)CC4)c3)ncn2)c(F)cc1[C@@H](C)NC(=O)c1nc(C(C)(C)C)no1 (stereo partly drawn) [Example 6, 3-(tert-butyl)-N-((1R)-1-(4-(6-((3-(4-(3-(4-((2,6-dioxopiperidin-3-yl)amino)phenyl)cyclobutyl)piperazin-1-yl)phenyl)amino)pyrimidin-4-yl)-5-fluoro-2-methylphenyl)ethyl)-1,2,4-oxadiazole-5-carboxamide] | 48.1 | > 10000 |
| Cc1c([C@@H](C)NC(=O)c2nc(C(C)(C)C)no2)ccc(-c2cc(Nc3ccc(N4CCN(CC5CCN(c6ccc(N7CCC(=O)NC7=O)cc6)CC5)CC4)cn3)ncn2)c1F [Example 9, (R)-3-(tert-butyl)-N-(1-(4-(6-((5-(4-((1-(4-(2,4-dioxotetrahydropyrimidin-1(2H)-yl)phenyl)piperidin-4-yl)methyl)piperazin-1-yl)pyridin-2-yl)amino)pyrimidin-4-yl)-3-fluoro-2-methylphenyl)ethyl)-1,2,4-oxadiazole-5-carboxamide] | 138 | > 10000 |
| Cc1cc(-c2cc(Nc3ccc(N4CCN(CC5CCN(c6ccc(N7CCC(=O)NC7=O)cc6)CC5)CC4)nc3)ncn2)ccc1[C@@H](C)NC(=O)c1nc(C2(C)CC2)no1 [Example 10, (R)—N-(1-(4-(6-((6-(4-((1-(4-(2,4-dioxotetrahydropyrimidin-1(2H)-yl)phenyl)piperidin-4-yl)methyl)piperazin-1-yl)pyridin-3-yl)amino)pyrimidin-4-yl)-2-methylphenyl)ethyl)-3-(1-methylcyclopropyl)-1,2,4-oxadiazole-5-carboxamide] | 89.5 | > 10000 |
| Cc1cc(-c2cc(Nc3ccc(N4CCN(CCc5cc(F)c([C@H]6CCC(=O)NC6=O)c(F)c5)CC4)cn3)ncn2)ccc1[C@@H](C)NC(=O)c1nc(C(C)(C)C)no1 [Example 46, 3-(tert-butyl)-N—((R)-1-(4-(6-((5-(4-(4-((R)-2,6-dioxopiperidin-3-yl)-3,5-difluorophenethyl)piperazin-1-yl)pyridin-2-yl)amino)pyrimidin-4-yl)-2-methylphenyl)ethyl)-1,2,4-oxadiazole-5-carboxamide] | – | > 10000 |

Continued, in another order:

| DC50 [2] [nM] | SMILES | IC50 [1] [nM] |
| --- | --- | --- |
| 16.9 | Cc1cc(-c2cc(Nc3ccc(N4CCN(CCC5CCN(c6ccc(C7CCC(=O)NC7=O)c(F)c6)CC5)CC4)cc3)ncn2)c(F)cc1[C@@H](C)NC(=O)c1nc(C(C)(C)C)no1 (stereo partly drawn) [Example 4, 3-(tert-butyl)-N-((1R)-1-(4-(6-((4-(4-(2-(1-(4-(2,6-dioxopiperidin-3-yl)-3-fluorophenyl)piperidin-4-yl)ethyl)piperazin-1-yl)phenyl)amino)pyrimidin-4-yl)-5-fluoro-2-methylphenyl)ethyl)-1,2,4-oxadiazole-5-carboxamide] | > 10000 |
| 12.8 | Cc1cc(-c2cc(Nc3ccc(N4CCN(CC5CCN(c6ccc(N7CCC(=O)NC7=O)cc6)CC5)CC4)cc3)ncn2)ccc1[C@@H](C)NC(=O)c1nc(C(C)(C)C)no1 [Example 7, (R)-3-(tert-butyl)-N-(1-(4-(6-((4-(4-((1-(4-(2,4-dioxotetrahydropyrimidin-1(2H)-yl)phenyl)piperidin-4-yl)methyl)piperazin-1-yl)phenyl)amino)pyrimidin-4-yl)-2-methylphenyl)ethyl)-1,2,4-oxadiazole-5-carboxamide] | > 10000 |
| 1.48 | Cc1cc(-c2cc(Nc3ccc(N4CCN(CC5CCN(c6ccc(N7CCC(=O)NC7=O)cc6)CC5)CC4)cn3)ncn2)c(F)cc1[C@@H](C)NC(=O)c1nc(C(C)(C)C)no1 [Example 8, (R)-3-(tert-butyl)-N-(1-(4-(6-((5-(4-((1-(4-(2,4-dioxotetrahydropyrimidin-1(2H)-yl)phenyl)piperidin-4-yl)methyl)piperazin-1-yl)pyridin-2-yl)amino)pyrimidin-4-yl)-5-fluoro-2-methylphenyl)ethyl)-1,2,4-oxadiazole-5-carboxamide] | > 10000 |
| 1.21 | Cc1cc(-c2cc(Nc3ccc(N4CCN(CC5CCN(c6ccc(N7CCC(=O)NC7=O)cc6)CC5)CC4)cn3)ncn2)ccc1[C@@H](C)NC(=O)c1nc(C2(C)CC2)no1 [Example 11, (R)—N-(1-(4-(6-((5-(4-((1-(4-(2,4-dioxotetrahydropyrimidin-1(2H)-yl)phenyl)piperidin-4-yl)methyl)piperazin-1-yl)pyridin-2-yl)amino)pyrimidin-4-yl)-2-methylphenyl)ethyl)-3-(1-methylcyclopropyl)-1,2,4-oxadiazole-5-carboxamide] | > 10000 |
| 1.28 | Cc1cc(-c2cc(Nc3ccc(N4CCN(C5CN(c6ccc(N7CCC(=O)NC7=O)cc6)C5)CC4)cn3)ncn2)ccc1[C@@H](C)NC(=O)c1nc(C2(C)CC2)no1 [Example 12, (R)—N-(1-(4-(6-((5-(4-(1-(4-(2,4-dioxotetrahydropyrimidin-1(2H)-yl)phenyl)azetidin-3-yl)piperazin-1-yl)pyridin-2-yl)amino)pyrimidin-4-yl)-2-methylphenyl)ethyl)-3-(1-methylcyclopropyl)-1,2,4-oxadiazole-5-carboxamide] | > 10000 |
